{"source": "patent US20170326356A1", "about": "“METHODS FOR TREATING PSYCHIATRIC DISORDERS” (priority 2016, published 2017)", "key": {"[1]": {"system": "offspring of pregnant dams", "assay": "Ultrasonic vocalizations of pups", "format": "in vivo, mice", "protocol": "(§1) Mice were mated overnight and females were checked daily for the presence of seminal plugs, noted as embryonic day 0.5 (E0.5). On E12.5, pregnant female mice were weighed and injected with a single dose (20 mg/kg i.p.) of poly(I:C) (Sigma Aldrich, USA) or PBS vehicle. Each dam was returned to its cage and left undisturbed until the birth of its litter. All pups remained with the mother until weaning on postnatal day 21 (P21), at which time mice were group housed at a maximum of 5 per cage with same-sex littermates. For checking the effect of poly(I:C) administration at different time points during pregnancy, the present inventors injected poly(I:C) into pregnant dams on E12.5, E15.5, or E18.5.\nOn postnatal day 9, mouse pup ultrasonic vocalizations (USVs) were detected for 3 min using an Ultra-Sound Gate CM16/CMPA microphone (AviSoft, Germany) and SAS Prolab software (AviSoft, Germany) in a sound attenuation chamber under stable temperature (19-22° C.) and light control (15 lux)."}, "[2]": {"system": "offspring of pregnant dams", "assay": "Analysis of cortical patches (absence of SATB2 or TBR1 expression) in offspring after maternal immune activation", "format": "in vivo, mice", "protocol": "as §1\nFor cryosectioning, animals were intracardially perfused, and the brain was dissected out, fixed with 4% paraformaldehyde in PBS overnight at 4° C., and cryoprotected in 30% sucrose solution. The left hemisphere was marked with a needle and the sections were coronally sliced at 40 μm using a cryostat (Leica, USA). For vibratome sectioning, animals were intracardially perfused, and the brain was fixed with 4% paraformaldehyde in PBS overnight at 4° C. The brains were coronally sliced at 50 μm with a Leica VT1000S vibratome (Leica, USA).\nSlices were permeabilized with blocking solution containing 0.4% Triton X-100 and 2% goat serum in PBS for 1 h at room temperature (RT) and then incubated with anti-rabbit-TBR1 (ab31940, Abcam, USA), anti-mouse-SATB2 (ab51502, Abcam, USA), anti-rabbit-PV (PV27, Swant, Switzerland), anti-rabbit-VIP (20077, Immunostar, USA), anti-mouse-NeuN (MAB377X, Millipore, USA), or anti-rabbit-c-Fos (sc-7270, Santa Cruz, USA) antibodies overnight at 4° C. […]\nCortical patches were identified by the absence of SATB2 or TBR1 expression. Spatial locations of the cortical patches were determined based on their distance from the midline of the brain and the layer structures of the cortex. […] The size of the cortical patches was calculated using Zen software (Carl Zeiss, Germany)."}}, "note": "“Also recorded” adds a separate entry of the source."}
{"substance": "polyinosinic:polycytidylic acid [poly(I:C)]", "values": [{"measurement": "USV calls made by pups upon separation from mothers at P9", "setting": "[1]; dams injected at E12.5, versus PBS offspring", "result": "emitted more ultrasonic vocalization (USV) calls"}, {"measurement": "USV calls made by pups upon separation from mothers at P9", "setting": "[1]; dams injected at E15.5 or E18.5", "result": "This finding was not observed; also recorded: such an increase was not observed"}, {"measurement": "offspring with cortical patches in the S1", "setting": "[2]; dams injected at E12.5, 20 mg/kg i.p.", "result": 77, "unit": "%"}, {"measurement": "offspring with cortical patches in the S1", "setting": "[2]; dams injected at E15.5", "result": 13, "unit": "%"}, {"measurement": "offspring with cortical patches in the S1", "setting": "[2]; dams injected at E18.5", "result": "none"}]}
